Source: patent publication US20240400983A1, “CELL AGGREGATE INCLUDING PITUITARY HORMONE-PRODUCING CELLS AND METHOD FOR PRODUCING SAME” (Sumitomo Pharma Co., Ltd., priority 2021, published 2024)
No end group written: not given here.

How the values were obtained:
[1] = tested on: cell aggregates from human iPS cells; experiment: Comparison of SAG treatment period on ACTH secretion capacity of cell aggregates from human iPS cells; type: cell-based; settings: SAG until day 30 versus continued after day 30 (days 61, 103, 131)
Procedure: Cell aggregates containing hypothalamic cells, pituitary progenitor cells, and pituitary hormone-producing cells were produced using the same differentiation induction method as in Example 1 (method without cell sorting using anti-EpCAM antibody). Regarding the SAG treatment period, two groups of a group in which SAG is added from immediately after the start of differentiation induction until day 30 (see FIG. 2), and a group so in which SAG is added from immediately after the start of differentiation induction and after day 30 (until days 61, 103, and 131) were set, and the ACTH secretion capacity was compared.

[2] = tested on: cell aggregates containing pituitary hormone-producing cells (reaggregated EpCAM-positive cells from human ES cells); experiment: ACTH stimulation test using CRH or dexamethasone on reaggregated EpCAM-positive cell aggregates (ACTH ELISA of culture supernatant); type: cell-based; settings: 24 hr
Procedure: An ACTH stimulation test using CRH (manufactured by NIPRO ES PHARMA CO., LTD.) was performed using cell aggregates obtained by purifying and reaggregating cell aggregates on day 62 after the start of differentiation induction and suspension culturing for 41 days. Twenty cell aggregates were transferred to a 10 cm suspension culture dish containing a serum-free medium (10 mL) supplemented with 20% KSR, cultured for 24 hr under condition of 37° C., 40% 02, and the culture supernatant was recovered. The cell aggregates were washed with a serum-free medium supplemented with 20% KSR, transferred to a new 10 cm suspension culture dish containing a serum-free medium (10 mL) supplemented with 20% KSR, and CRH 5 μg/mL was added. After culturing for 24 hr under condition of 37° C., 40% O2, the culture supernatant was recovered. The ACTH concentration in the collected culture supernatant was measured by the ELISA method used in clinical testing (testing outsourced to SRL, Inc.).
In addition, the response of EpCAM-positive cell reaggregates to hormones was also examined. On day 60 after the start of differentiation induction, cell sorting was performed using an anti-EpCAM antibody, and then EpCAM-positive cells were reaggregated and cultured until day 103 after the start of differentiation induction. Thereafter, an ACTH stimulation test using CRH (manufactured by NIPRO ES PHARMA CO., LTD.) or dexamethasone (DX, manufactured by Aspen Japan K.K.) was conducted. Specifically, 20 cell aggregates were transferred to a 10 cm suspension culture dish containing 10 mL of serum-free medium supplemented with 20% KSR, and after culturing for 24 hr under conditions of 37° C., 40% 02, the culture supernatant was recovered. […] The ACTH concentration in the recovered culture supernatant was measured by the ELISA method used in clinical testing (testing outsourced to SRL, Ltd.). […]

hypopituitary mice = experiment: Transplantation of EpCAM-positive cell reaggregates under the kidney capsule of hypopituitary mice; blood ACTH with CRH, dexamethasone or LPS stimulation; type: in vivo, mouse; parameters: dose or concentration left out as unconfirmed; settings: CRH intraperitoneal; blood 1 hr after; 4, 12, 24 weeks after transplantation
Procedure: Thereafter, the cells were cultured up to day 107 after the start of differentiation induction and transplanted to under the capsule of the left kidney of hypopituitary mice (10-17 weeks old) whose pituitary was surgically removed (transplantation group). A control group (sham group) was also set in which only the transplantation procedure was performed and no EpCAM-positive cells were transplanted. In addition, hypopituitary mice whose pituitary gland was surgically removed were produced by performing using a transaural approach on SCID mice (7-9 weeks old, male). […] CRH stimulation was applied to the transplantation group and the sham group, and the effect on ACTH secretion capacity was examined. Specifically, mice were administered with CRH (2 pg/kg, intraperitoneal administration) 4, 12, or 24 weeks after transplantation, and blood was collected before CRH administration and 1 hr after CHR administration. Each blood ACTH concentration was measured using ACTH ELISA kit (MD Bioproducts).

[3] = tested on: cell aggregates containing pituitary hormone-producing cells (day 63 sort, DX treated for 14 days); experiment: GH stimulation test using GRF and GH suppression test using somatostatin; type: cell-based, human; settings: day 63 sort + 40 days, DX 14 days; GRF 2 μg/mL, 24 hr
Procedure: Using cell aggregates obtained by purifying and reaggregating cell aggregates on day 63 after the start of differentiation induction, suspension culturing for 40 days, and treating with DX for 14 days, a GH stimulation test using GRF and a GH suppression test using somatostatin were conducted. Fifteen cell aggregates were transferred to a 6-well culture plate (manufactured by SUMITOMO BAKELITE CO., LTD., for suspension culturing, culture area 9.2 cm^2) containing a serum-free medium (2 mL) supplemented with 20% KSR, cultured for 24 hr under conditions of 37° C., 40% O2, and the culture supernatant was recovered. The cell aggregates were washed with a serum-free medium supplemented with 20% KSR, transferred to a 6-well culture plate containing a new serum-free medium (2 mL) supplemented with 20% KSR, and GRF 2 μg/mL or somatostatin 100 ng/mL was added. After culturing for 24 hr under condition of 37° C., 40% O2, the culture supernatant was recovered. […]

## CNC1CCC(N(Cc2cccc(-c3ccncc3)c2)C(=O)c2sc3ccccc3c2Cl)CC1 (stereo not drawn) [SAG, N-Methyl-N′-(3-pyridinylbenzyl)-N′-(3-chlorobenzo[b]thiophene-2-carbonyl)-1,4-diaminocyclohexane]
[1]
  ACTH secretion capacity depending on SAG treatment period: improved by stopping SAG treatment on day 30

## C[C@@H]1C[C@H]2[C@@H]3CCC4=CC(=O)C=C[C@]4(C)[C@@]3(F)[C@@H](O)C[C@]2(C)[C@@]1(O)C(=O)CO [dexamethasone]
[2]; day 60 sort, cultured to day 103, 500 ng/mL dexamethasone
  decrease of ACTH secretion amount by dexamethasone stimulation: about 50%

## CRH: CRH (manufactured by NIPRO ES PHARMA CO., LTD.) used for the ACTH stimulation test (SEEPPISLDLTFHLLREVLEMARAEQLAQQAHSNRKLMEII; ends and bridges not checked; UniProt P06850 154-194, looked up)
[2]; day 60 sort, cultured to day 103, 5 μg/mL CRH
  increase of ACTH secretion amount by CRH stimulation: about 2.2 times
[2]; day 62 sort + 41 days suspension culture, CRH 5 μg/mL
  increase of the amount of ACTH secretion by addition of CRH: a little less than two times
Hypopituitary mice
  blood ACTH concentration after CRH stimulation in transplantation group: further increase

## GRF: GRF used for the GH stimulation test (YADAIFTNSYRKVLGQLSARKLLQDIMSRQQGESNQERGARARL; ends and bridges not checked; UniProt P01286 32-75, looked up)
[3]
  increase of the amount of GH secretion by addition of GRF: a little less than two times
